Assay results as given in US4508625A, “Magnetic separation using chelated magnetic ions” (priority 1983, dated 1985).

Assays:
red blood cells = settings: 10 mM dithionite or 20 mM nitrite, cited from earlier work; for cell separation: 1.0 Tesla, 1.0 ml/minute, filtration times of more than one minute; for separation efficiency: 2.0 Tesla, unacceptably variable from sample to sample
blood cells = experiment: Cell integrity during separation (lysis, morphology, clumping, hemoglobin state); assay type: cell-based, human; settings: 10 mM sodium dithionite
Description: In Table I, the filtration data at 0.75 ml/min is reported for whole blood diluted 1:101 with the working solution including erbium chelate at the indicated concentration. The matrix material was unannealed, 316L austenitic stainless wire, 35 micrometers in diameter, randomly packed to 11.4% of the filter volume. Table I summarizes experimental filtration data according to the concentration of Er(EDTA)^- in the carrier solution, and includes for comparative purposes, sodium dithionite at 10 mM final concentration as a substitute for the chelated lanthanide. The solution osmolarity was adjusted to that of 40 mM erbium chloride by addition of sodium chloride. In a second experiment, 10 mM sodium dithionite in isotonic saline buffered with phosphate was employed. […] Data for various field intensities are given for the higher chelate concentrations, all at constant flows of 0.75 ml/min. Carrier solutions used in each of the stated concentrations of the lanthanide chelate were prepared as described in Example 1.
Cellular hemoglobin remains in the oxygenated (and therefore the antagonistically diamagnetic) state throughout the separation process. Cell lysis was not detected. […] The cells were readily removed from the matrix by flushing with isotonic saline (0.9% NaCl by weight containing no metal chelate). […]

[1] = tested on: human blood cells (whole blood); experiment: High-gradient magnetic separation (HGMS) filtration of cells from diluted whole blood; assay type: cell-based; settings: for Magnetic efficiency, E / Magnetic filtration, M / Mechanical Filtration, F / Total Filtration, T: 0.75 ml/min, 316L matrix
Description: The samples were verified for normalcy (COULTER COUNTER Model S-Plus; Coulter Electronics, Inc.) before use on the day of drawing.
Separability of cells from carrier fluids was examined using a High-Gradient Magnetic Separation (HGMS) system. The filter was a D-shaped plastic chamber 13 mm long and 118 mm^2 in cross-section, filled with stainless steel wire as noted. Packing was random, but with the major component parallel to flow. […] Suspension flows upward through the filter were controlled by a variable-speed syringe pump, fitted with a 3 ml syringe to contain the cell suspension.
Unless otherwise noted, to clean the matrix and to clear the circuit of air, the filter was flushed manually with 15 ml of the experimental carrier solution before each separation determination. With the electromagnet still de-energized, the circuit was then overfilled rapidly with the corresponding cell suspension, and the syringe pump was activated. After 1.2 ml of cell suspension had been delivered at the chosen flow rate, a one-milliliter aliquot (Al) of filter effluent was collected for use in calculating mechanical filtration levels. With filter backflow prevented, the pump syringe was refilled, the magnet energized at the preselected field intensity, and the delivery and collection (aliquot A2) steps repeated. This sequence was repeated for each selected combination of flow rate and field intensity. A 2 ml control aliquot (A3) was taken for each suspension from the reservoir used to fill the filter and the syringe pump. The aliquots were analyzed for cell count and volume, count data (A1, A2, A3) being used to calculate filter characteristics as follows (for percentages, multiply by 100:)
Mechanical Filtration, F=(A3-A1)/A3
Magnetic filtration, M=(A1-A2)/A3
Magnetic efficiency, E=(A1-A2)/A1=M/(1-F)
Total Filtration, T=(A3-A2)/A3=M+F
The solution osmolarity was adjusted to that of 40 mM erbium chloride by addition of sodium chloride. In a second experiment, 10 mM sodium dithionite in isotonic saline buffered with phosphate was employed.
Erbium chloride was dissolved in water via chelation with EDTA. Carrier solutions of 100 cc each, containing erbium chloride in the concentration of 2 mM, 5 mM, 10 mM, 20 mM, 40 mM and 50 mM respectively and EDTA in a molar ratio of 1.1:1 with the erbium chloride were prepared in the following manner for use in obtaining the data reported in Table I.
The volume was then brought to 75 ml with deionized water, and the materials were mixed in a plastic container. The solution pH was adjusted to 7.0 to 7.1 by adding sodium hydroxide solution. The osmolarity was then adjusted to physiological levels of about 300±10 mOs/L, the 100 ml volume being completed with deionized water. Carrier solutions were prepared within two hours of each experiment from stock solutions no more than one week old.
The above procedures were followed substituting the equivalent amount of dysprosium chloride for the erbium chloride in order to obtain the values reported in FIG. 1.

SMILES: O=S([O-])S(=O)[O-].[Na+].[Na+] [Sodium dithionite, sodium dithionite]
- cell separation (red blood cells): approximately 70%
- separation efficiency (red blood cells): exceeding 85%
- deoxygenation of hemoglobin (blood cells): deoxygenation was confirmed spectrophotometrically
- Magnetic efficiency, E ([1]; 10 mM, 0.30 T): 13.0%
- Magnetic filtration, M ([1]; 10 mM, 0.30 T): 11.6%
- Mechanical Filtration, F ([1]; 10 mM, 0.30 T): 11.0%
- Total Filtration, T ([1]; 10 mM, 0.30 T): 22.6%
- Magnetic efficiency, E ([1]; 10 mM, 1.00 T): 76.9%
- Magnetic filtration, M ([1]; 10 mM, 1.00 T): 68.4%
- Mechanical Filtration, F ([1]; 10 mM, 1.00 T): 11.0%
- Total Filtration, T ([1]; 10 mM, 1.00 T): 79.4%
- Magnetic efficiency, E ([1]; 50 mM, 0.48 T): 92.2%
- Magnetic filtration, M ([1]; 50 mM, 0.48 T): 88.2%
- Mechanical Filtration, F ([1]; 50 mM, 0.48 T): 4.3%
- Total Filtration, T ([1]; 50 mM, 0.48 T): 92.5%
- Magnetic efficiency, E ([1]; 50 mM, 1.00 T): 98.4%
- Magnetic filtration, M ([1]; 50 mM, 1.00 T): 94.1%
- Mechanical Filtration, F ([1]; 50 mM, 1.00 T): 4.3%
- Total Filtration, T ([1]; 50 mM, 1.00 T): 98.4%
- separation efficiency ([1]; 0.3 Tesla, 430 ferritic matrix, 40 mM chelate or 10 mM sodium dithionite, 0.75 ml/min (FIG. 1)): 37%
- separation efficiency ([1]; 0.7 Tesla, 430 ferritic matrix, 10 mM sodium dithionite, identical flows): 90%
- repeatable separations at efficiencies greater than 99% ([1]; 430 ferritic matrix): not practical

SMILES: O=N[O-].[Na+] [nitrite, sodium nitrite]
- cell separation (red blood cells): approximately 70%
- separation efficiency (red blood cells): exceeding 85%
